Source: patent publication US20120252037A1, “STIMULATORY AUTO-ANTIBODIES TO THE PDGF RECEPTOR AS PATHOLOGY MARKER AND THERAPEUTIC TARGET” (priority 2005, published 2012)
Read-outs that look alike come from different tables or passages of the source. Peptide text beside a SMILES is read from it. * marks the point of attachment. Cbz = O=C(OCc1ccccc1)*

What was measured:
[1] = system: Ha-Ras; experiment: Ha-Ras / Ki-Ras protein levels in primary fibroblasts (immunoprecipitation, immunoblot, immunofluorescence, FACS); type: cell-based, human; conditions: for effect on Ha-Ras induction by PDGF / effect on Ha Ras levels: primary fibroblasts
Procedure: Ras proteins were immunoprecipitated from cultured fibroblasts with polyclonal anti pan Ras antibody (Santa Cruz Biotechnology, Santa Cruz, Calif.) following recommended procedures from the manufacturer.
Fibroblasts, cultured on Lab-Tek chamber glass slides (Nalge-Nunc, Ill., USA) and starved 48 h before stimulation or addition of inhibitors, were fixed 4% para-formaldheide, permeabilized by 0.1% Triton-X, and stained with a monoclonal antibody against Ha-Ras and then with a tetramethylrhodamine-isothiocyanate (TRITC) conjugated secondary antibody (Molecular Probes, NL). Slides were mounted with Vectarshield (H-100; Vector, Burlingame, Calif.) and examined using a BioRad (Hemel Hempstead, UK) microradiance confocal laser-scanning microscope equipped with argon and helium/neon lasers. Acquired images were analysed using the Laser Sharp Processing BioRad software (version 3.2). All images from different slides condition were acquired in double-blinded fashion.
Cells were grown to semiconfluency in 60 mm culture dishes. After trypsin detachment, 5×10^5 cells were suspended in 1 ml of phosphate buffered saline (PBS) and fixed overnight with 1% formaldehyde at room temperature. Next, cells were permeabilized with 0.1% Triton×100 for 40 min at 4° C., washed 4 times with 2 ml of PBS containing 2% FBS, 0.01% NaN3, 0.1% Triton×100 (buffer A), and incubated for 45 min at 4° C. with 1:50 dilution of monoclonal and polyclonal anti HaRas antibodies (Santa Cruz Biotechnology, Santa Cruz, Calif., USA). The cells were then washed twice with the same buffer and incubated for 45 min at 4° C. with Cy2-conjugated anti-mouse IgG antibodies (Amersham Pharmacia Biotech, Milano, Italia) at 1:50 dilution. Control cells were incubated with Cy2-conjugated anti mouse IgG antibodies alone. After two washes in buffer A, cells were resuspended in PBS and analyzed by flow cytometry using FACScan (BD, Heidelberg, Germany) and WinMDI software.

[2] = system: SSc fibroblasts; experiment: Oxidative stress-induced apoptosis in scleroderma fibroblasts; type: cell-based, human; conditions: H2O2, pre-treatment, FIG. 8C
Procedure: Normal and scleroderma fibroblasts were grown to 80-90% confluence and treated for 2 h with different concentrations of H2O2. When needed, cells were preincubated 30 min with PD 98059 (40 μmol/L).
(§1) Six hours after the removal of the stimulus, apoptosis was detected by FACS analysis using annexin V-Cy3 (Clontech, Palo Alto Calif.). Statistical analysis

[3] = system: normal human fibroblasts; experiment: ROS (DCF fluorescence) in normal human fibroblasts; type: cell-based; conditions: for effect on ROS induction by SSc IgG in normal fibroblasts: FIG. 2A, pre-incubation for 2 hours (AG1478 2 μM, FT-277 20 μM, PD98059 40 μM)
Procedure: (§2) Fluorimetric determination of intracellular ROS generated by adherent fibroblasts was estimated after loading the cells with 2′,7′-dichlorofluorescein diacetate (DCFH-DA 10 μM, Molecular Probes, PoortGebouw, The Nederlands) for 15 min at 37° C. The DCF fluorescence intensity was measured by a CytoFluor plate reader (PerkinElmer, Wallac, Finland) (excitation wavelength, 485 nm; emission wavelength, 530 nm) (8). Ten measurements were made in each single well from ten distinct points and the values averaged. Each IgG sample was run in duplicate and the average has been recorded. The results are expressed as DCF fluorescence intensity calculated subtracting from the DCF fluorescence intensity of the test IgG the DCF fluorescence intensity of a negative control obtained by cell cultured without IgG. The intra-plate and the inter-plate coefficient of variation was less than 3%. The samples were recorded as positive if the SI was greater than the mean plus three standard deviations of the normal group.
In selected experiments ROS generation was evaluated after the addition of PDGF receptor tyrosine kinase inhibitor (AG 1296; 2 μM for 2 hours), Epidermal growth factor (EGF) receptor tyrosine kinase inhibitor (AG 1478; 2 μM for 2 hours), a chemical inhibitor of ERK 1/2 signalling (PD 98059; 40 μM for 2 hours), and a farnesyl protein transferase inhibitor to block Ras farnesylation (FTI-277; 20 μM for 2 hours). AG 1296, AG 1478, PD 98059 and FTI-277 were obtained from Calbiochem (San Diego, Calif.).
Fluorimetric determination of intracellular ROS generated by fibroblasts was estimated after loading the cells with DCFH-DA (10 μM) for 15 min at 37° C. before assessing DCF fluorescence level (15). Superoxide anion release was estimated using the superoxide dismutase-inhibitable cytochrome c reduction (12). H2O2 release from fibroblasts into the overlying medium was assayed using a modification of the method of Valletta and Berton (1987) (16). Oxidative activity imaging in living, transfected cells was evaluated as described (12, 17).

[4] = system: ERK1/2; experiment: P-ERK1/2 immunoblot in primary fibroblasts; type: cell-based, human; conditions: for effect on ERK1/2 activated by PDGF: NAC 20 mM 5 h, DPI 20 μM 1 h, FIG. 5E
Procedure: Cell culture plates were lysed with 0.3 ml of cold RIPA buffer (1×PBS, 1% Nonidet P-40, 0.5% sodium deoxycholate, 0.1% SDS, 2 mM sodium orthovanadate, 2 μg/ml aprotinin, 1 mM PMSF) and processed for immunoblotting as described (8).
Cell culture plates were lysed with 0.3 ml of cold RIPA buffer (1×PBS, 1% Nonidet P-40, 0.5% sodium deoxycholate, 0.1% SDS, 2 mM sodium orthovanadate, 2 μg/ml aprotinin, 1 mM PMSF) and processed as described (14).

[5] = system: PDGF receptor; experiment: PDGF receptor level in primary fibroblast extracts (immunoblot); type: cell-based, human; conditions: independently on ERK1/2 activation; FIG. 5D
Procedure: D. PDGF induction of Ha-Ras is mediated by ERK1/2. Fibroblasts, incubated in 0.2% FCS for 48 h, were treated with the MEK inhibitors, PD98059 (40 μM) 2 h, before the treatment with PDGF (15 ng/ml).

[6] = molecular target: T1, PDGFR (Homo sapiens, UniProt P09619); experiment: Tyrosine phosphorylation of the PDGFR in normal fibroblasts; type: cell-based; conditions: FIG. 2D and data not shown
T1 construct: endogenous in cells; host or cells: normal human fibroblasts
T1 sequence (P09619 33-1106): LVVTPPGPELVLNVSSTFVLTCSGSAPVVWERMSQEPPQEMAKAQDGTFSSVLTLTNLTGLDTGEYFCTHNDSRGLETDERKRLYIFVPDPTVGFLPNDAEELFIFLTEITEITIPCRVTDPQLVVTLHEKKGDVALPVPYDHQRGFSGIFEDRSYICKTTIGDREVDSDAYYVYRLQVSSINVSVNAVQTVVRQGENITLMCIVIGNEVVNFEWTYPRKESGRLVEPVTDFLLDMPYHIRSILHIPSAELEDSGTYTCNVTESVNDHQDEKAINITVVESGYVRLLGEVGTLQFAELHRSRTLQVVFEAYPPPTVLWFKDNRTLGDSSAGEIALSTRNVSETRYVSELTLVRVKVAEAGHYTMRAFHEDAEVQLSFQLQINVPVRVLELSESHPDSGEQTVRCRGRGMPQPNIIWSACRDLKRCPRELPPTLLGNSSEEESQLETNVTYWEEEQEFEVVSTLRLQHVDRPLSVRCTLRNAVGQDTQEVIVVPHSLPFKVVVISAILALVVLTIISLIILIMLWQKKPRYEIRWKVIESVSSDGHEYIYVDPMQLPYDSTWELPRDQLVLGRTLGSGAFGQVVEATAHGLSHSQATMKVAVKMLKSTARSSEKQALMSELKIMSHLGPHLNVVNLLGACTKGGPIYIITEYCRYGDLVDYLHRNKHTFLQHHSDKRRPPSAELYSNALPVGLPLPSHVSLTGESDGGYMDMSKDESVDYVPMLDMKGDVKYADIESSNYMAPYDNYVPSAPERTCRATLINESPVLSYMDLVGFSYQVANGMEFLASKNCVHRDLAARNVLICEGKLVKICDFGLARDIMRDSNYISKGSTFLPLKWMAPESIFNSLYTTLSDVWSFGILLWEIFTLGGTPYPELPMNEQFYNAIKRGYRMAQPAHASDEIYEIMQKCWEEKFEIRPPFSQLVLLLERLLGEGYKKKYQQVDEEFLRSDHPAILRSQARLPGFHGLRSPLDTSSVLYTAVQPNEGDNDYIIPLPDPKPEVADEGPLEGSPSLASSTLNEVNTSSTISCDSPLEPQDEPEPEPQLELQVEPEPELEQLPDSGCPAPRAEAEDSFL
Procedure: Panel D. Normal human fibroblasts were stimulated with SSc IgG (200 μg/ml for 15 min), PDGF (15 ng/ml for 15 min) or grown in FCS 0.2%. Cell lysates were immunoprecipitated with a polyclonal antibody against PDGFR (subunit β) and the immunoblots were developed with a specific antibody against phosphorylated tyrosine.

[7] = system: Umbilical vein endothelial cells; experiment: Apoptosis of umbilical vein endothelial cells (annexin V FACS); type: cell-based; conditions: overnight; SSc IgG 200 μg/ml, PDGF 15 ng/ml; FIG. 3C
Procedure: Endothelial cells will be isolated from umbilical cord. Cells were stimulated with SSc IgG (200 μg/ml), normal IgG (200 μg/ml) and PDGF (15 ng/ml) for 12 hours in the presence and in the absence of inhibitors of PDGFR and EGFR tyrosine kinase activity.
as §1

[8] = molecular target: T2, PDGFR α subunit expressed by Fα cells (Homo sapiens, UniProt P16234); experiment: Bio-assay for anti PDGFR autoantibodies: ROS production (DCF fluorescence) in Fα cells; type: cell-based, mouse; conditions: pre-incubation 2 μM for 2 hours
T2 construct: expressed in transfected cells; host or cells: mouse embryo fibroblasts from PDGF receptor knock-out embryos (F-/-) infected with PDGFR α (Fα cells)
T2 sequence (P16234 24-1089): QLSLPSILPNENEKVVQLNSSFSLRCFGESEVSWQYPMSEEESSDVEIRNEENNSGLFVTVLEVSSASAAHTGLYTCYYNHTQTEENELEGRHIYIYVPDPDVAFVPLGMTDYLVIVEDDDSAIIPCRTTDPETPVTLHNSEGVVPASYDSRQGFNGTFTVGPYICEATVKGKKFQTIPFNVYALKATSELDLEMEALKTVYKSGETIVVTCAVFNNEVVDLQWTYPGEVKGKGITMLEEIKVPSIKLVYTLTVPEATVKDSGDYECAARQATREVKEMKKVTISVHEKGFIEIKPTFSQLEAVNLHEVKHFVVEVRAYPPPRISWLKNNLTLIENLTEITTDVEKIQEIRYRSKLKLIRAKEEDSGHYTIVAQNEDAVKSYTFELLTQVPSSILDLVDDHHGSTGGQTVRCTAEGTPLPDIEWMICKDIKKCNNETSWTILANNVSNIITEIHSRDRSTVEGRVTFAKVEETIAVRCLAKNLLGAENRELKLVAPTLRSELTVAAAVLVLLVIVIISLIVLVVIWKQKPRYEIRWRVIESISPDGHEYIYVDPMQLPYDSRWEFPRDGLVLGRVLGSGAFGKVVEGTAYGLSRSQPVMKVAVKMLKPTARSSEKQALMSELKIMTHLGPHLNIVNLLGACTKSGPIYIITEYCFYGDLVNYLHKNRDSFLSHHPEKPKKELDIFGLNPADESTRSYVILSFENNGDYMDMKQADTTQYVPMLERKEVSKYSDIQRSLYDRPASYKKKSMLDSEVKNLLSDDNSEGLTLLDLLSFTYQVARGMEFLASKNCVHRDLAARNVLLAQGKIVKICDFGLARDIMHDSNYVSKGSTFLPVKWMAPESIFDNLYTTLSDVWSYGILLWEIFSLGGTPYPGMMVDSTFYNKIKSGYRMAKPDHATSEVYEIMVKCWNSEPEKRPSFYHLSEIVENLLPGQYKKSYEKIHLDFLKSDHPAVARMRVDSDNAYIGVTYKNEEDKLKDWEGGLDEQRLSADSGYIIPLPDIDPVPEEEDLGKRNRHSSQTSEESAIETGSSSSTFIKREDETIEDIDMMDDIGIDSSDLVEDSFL
Procedure: Patients and control serum samples were tested for the presence of PDGFR activating autoantibodies in a functional bioassay based on the production of ROS by mouse embryo fibroblasts infected with PDGFR α and/or β subunits and exposed in vitro to immunopurified IgG. Control cells were F−/− cells devoid of PDGFR. In brief, cells were plated in duplicate at a density of 30,000 cells in 1.83-cm^2 wells and incubated for 24 hours at 37° C. in 0.2 percent fetal calf serum. The cells were then washed with phosphate-buffered saline and incubated with a pre-determined amount of control or patient IgG for 15 minutes at 37° C. before ROS production determination.
as §2, with “Ten measurements were made in each single well from ten distinct points and the values averaged.” left out, “The intra-plate and the inter-plate coefficient of variation was less than 3%. The samples were recorded as positive if the SI was greater than the mean plus three standard deviations of the normal group.” left out

[9] = 90 min in the presence of genistein, data not shown

cyclodextrin
effect on Ha-Ras induction by PDGF ([1]; PDGF 15 ng/ml): did not abolish

COc1cccc(-c2cc(=O)c3ccccc3o2)c1N [PD98059]
effect on oxidative stress-induced apoptosis [2]: inhibited | effect on ROS induction by SSc IgG in normal fibroblasts [3]: prevented | effect on induction of Ha-Ras by H2O2 ([1]; PD 98059 2 h, U0126 15 min incubation, FIGS. 6A, 6B): abolished | effect on Ha-Ras induction by PDGF ([1]; PDGF 15 ng/ml): inhibited

O=c1c(-c2ccc(O)cc2)coc2cc(O)cc(O)c12 [genistein]
effect on ERK1/2 induced by H2O2, longer incubation [4, 9]: inhibited | effect on Ha-Ras induced by H2O2, longer incubation [1, 9]: inhibited | effect on Ha-Ras induction by PDGF ([1]; PDGF 15 ng/ml): inhibited

c1ccc2c(c1)[I+]c1ccccc1-2 [DPI, diphenylene iodonium]
effect on ERK1/2 activated by PDGF [4]: sensitive | effect on Ha-Ras induction by PDGF ([1]; PDGF 15 ng/ml): significantly inhibited

CC(C)C[C@@H](C=O)NC(=O)[C@H](CC(C)C)NC(=O)[C@H](CC(C)C)NC(=O)OCc1ccccc1 [MG132] (Cbz-Leu-Leu-Leu-aldehyde)
effect on Ha Ras when administered with PDGF or H2O2 ([1]; FIG. 6E): not additive | effect on Ha Ras levels ([1]; FIG. 6E): induced

PDGF
duration of induced ROS (return to baseline) ([3]; discussion, cells not given): 15 to 30 min | PDGF receptor level [5]: down-regulated | duration of PDGFR tyrosine phosphorylation [6]: 15 min | induction of endothelial cell apoptosis [7]: unable to induce apoptosis | half-life of Ha-Ras protein induced by PDGF ([1]; estimated from several experiments): approximately 40 min | Ki-Ras decay time ([1]; of PDGF stimulation, FIG. 4A): 3 h | time after stimulation at which Ha-Ras decreased to the initial levels ([1]; primary human fibroblasts, growth factor still present): 120 min | PDGF stimulation time sufficient to induce Ha-Ras protein ([1]; quiescent primary human fibroblasts, PDGF 15 ng/ml): 15 min

COC(=O)[C@H](CCSC)NC(=O)c1ccc(NC[C@@H](N)CS)cc1-c1ccccc1 [FTI-277]
effect on ROS induction by SSc IgG in normal fibroblasts [3]: prevented

CC[C@@]1([C@@H]2O[C@@H]([C@H]3O[C@@](O)(CO)[C@H](C)C[C@@H]3C)C[C@@H]2C)CC[C@H]([C@]2(C)CC[C@]3(C[C@H](O)[C@@H](C)[C@@H]([C@@H](C)[C@@H](OC)[C@H](C)C(=O)O)O3)O2)O1 [monensin]
effect on Ha Ras levels ([1]; FIG. 6E): no effect

C[C@@H]1C[C@@H]([C@H](O)CC2CC(=O)NC(=O)C2)C(=O)[C@@H](C)C1 [cycloheximide]
effect on Ha-Ras induction by PDGF ([1]; PDGF 15 ng/ml): did not prevent

OO [H2O2]
Ha Ras induction in the presence of genistein ([1]; FIG. 6D): powerful inducer

N#CC(=C(/N)Sc1ccccc1N)/C(C#N)=C(\N)Sc1ccccc1N [U0126]
effect on induction of Ha-Ras by H2O2 [1]: abolished

COc1cc2ncnc(Nc3cccc(Cl)c3)c2cc1OC [AG1478]
effect on ROS induction by SSc IgG in normal fibroblasts [3]: prevented | effect on Ha-Ras induced by SSc IgG ([1]; normal human fibroblasts, FIG. 2B, inhibitor for 2 h): slight inhibition

CC(=O)N[C@@H](CS)C(=O)O [NAC, N-acetyl-L-cysteine]
effect on ERK1/2 activated by PDGF [4]: sensitive | effect on Ha-Ras induction by PDGF ([1]; PDGF 15 ng/ml): significantly inhibited

COc1cc2ncc(-c3ccccc3)nc2cc1OC [AG 1296]
effect on ROS induced in Fα cells incubated with SSc IgG [8]: inhibited
